Source: patent US9243247B2, “Composition for promoting apoptosis or inhibiting cell growth, comprising epstein-barr virus microrna” (Catholic University Industry Academic Cooperation Foundation, priority 2011, dated 2016)

Tests used:
Assay type in all cases: cell-based
AGS cell strain [1] = assay: Effect on cell cycle (propidium iodide staining, FACS, sub G1); conditions: mimic 10 nM, 10 uM 5-FU 24 h after transfection, then 48 hours, relative to scrambled control (=1)
How it was run: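 AGS gastric cells (EBV-negative), 2×10^5 per well, were transfected with synthetic miRNA (10 nM). DNA was stained with propidium iodide, and the cell-cycle-altered fraction was measured by FACS.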

AGS cell strain [2] = assay: Measurement of apoptosis (Annexin V staining, FACS); conditions: for Relative Apoptotic cell: AGS, mimic 10 nM, 10 uM 5-FU 24 h after transfection, then 48 hours, Annexin V, relative to scrambled control (=1), n=9; for effect on cell growth and apoptosis (summary statement): mimics transfected to AGS, tumor cell strain not infected with EBV
How it was run: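 EBV-negative AGS cells (2×10^5/well) were transfected with 10 nM synthetic miRNA. Twenty-four hours later they received 10 uM 5-FU for 48 h at 37 °C. The apoptotic cell ratio was measured by PE Annexin V staining and FACS.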

AGS cell strain [3] = assay: Cell growth test (CCK-8 assay) after transfection of BART miRNA mimics; conditions: mimic 10 nM, 72 hours after transfection, relative to scrambled control (=1), n=9
How it was run: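 EBV-negative AGS gastric cells in RPMI1640 with 10% FBS, seeded 1×10^3 cells/well and transfected with synthetic mature BART miRNA mimics (10 nM; dose series 1, 3, 10, 30 nM) via G-fectin. Growth read by CCK-8 after 72 h (or over time), 2 h at 37 °C, absorbance measured.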

“BART8-3p: EBV BART miRNA mimic, double stranded RNA; sense SEQ NO: 47, antisense SEQ NO: 48 (sense GUCACAAUCUAUGGGGUCGUAGA; antisense UCUACGACCCCAUAGAUUGUGAC; chemistry not given here)” was tested, and the “Relative Sub G1” value (AGS cell strain [1]) was 0.9616, the “Relative Apoptotic cell” value (AGS cell strain [2]) was 1.072 and the “Relative Cell Growth” value (AGS cell strain [3]) was 1.396.

With “BART11-3p: EBV BART miRNA mimic, double stranded RNA; probably sense SEQ NO: 63, antisense SEQ NO: 64 (printed as BART11-5p) (sense ACGCACACCAGGCUGACUGCC; antisense GGCAGUCAGCCUGGUGUGCGU; chemistry not given here)” the “Relative Sub G1” value (AGS cell strain [1]) was 1.128, the “Relative Apoptotic cell” value (AGS cell strain [2]) was 1.058 and the “Relative Cell Growth” value (AGS cell strain [3]) was 0.9459.

With “BART19-5p: EBV BART miRNA mimic, double stranded RNA; sense SEQ NO: 69, antisense SEQ NO: 70 (sense ACAUUCCCCGCAAACAUGACAUG; antisense CAUGUCAUGUUUGCGGGGAAUGU; chemistry not given here)” the “Relative Sub G1” value (AGS cell strain [1]) was 1.349, the “Relative Sub G1” value (AGS cell strain [1]; listed as 19-5p) was “increased” and the “Relative Apoptotic cell” value (AGS cell strain [2]) was 1.071. The “Relative Cell Growth” value (AGS cell strain [3]) was 1.151.

“BART8-5p: EBV BART miRNA mimic, double stranded RNA; sense SEQ NO: 45, antisense SEQ NO: 46 (sense UACGGUUUCCUAGAUUGUACAG; antisense CUGUACAAUCUAGGAAACCGUA; chemistry not given here)” was tested, and the “Relative Sub G1” value (AGS cell strain [1]) was 1.013, the “Relative Apoptotic cell” value (AGS cell strain [2]) was 0.9757 and the “Relative Cell Growth” value (AGS cell strain [3]) was 1.448.

With “BART9-5p: EBV BART miRNA mimic, double stranded RNA; sense SEQ NO: 49, antisense SEQ NO: 50 (sense UACUGGACCCUGAAUUGGAAAC; antisense GUUUCCAAUUCAGGGUCCAGUA; chemistry not given here)” the “Relative Sub G1” value (AGS cell strain [1]) was 1.005, the “Relative Apoptotic cell” value (AGS cell strain [2]) was 1.25 and the “Relative Apoptotic cell” value (AGS cell strain [2]; listed as 9-5p) was “significantly higher”. The “effect on cell growth and apoptosis (summary statement)” value (AGS cell strain [2]) was “inhibit cell growth and promote apoptosis” and the “Relative Cell Growth” value (AGS cell strain [3]) was 1.482.

For “BART1-3p: EBV BART miRNA mimic, double stranded RNA; sense SEQ NO: 11, antisense SEQ NO: 12 (sense UAGCACCGCUAUCCACUAUGUC; antisense GACAUAGUGGAUAGCGGUGCUA; chemistry not given here)”, the “Relative Sub G1” value (AGS cell strain [1]) was 0.7947, the “Relative Apoptotic cell” value (AGS cell strain [2]) was 0.9231 and the “Relative Cell Growth” value (AGS cell strain [3]) was 1.201.

In the case of “BART18-5p: EBV BART miRNA mimic, double stranded RNA; sense SEQ NO: 37, antisense SEQ NO: 38 (sense UCAAGUUCGCACUUCCUAUACA; antisense UGUAUAGGAAGUGCGAACUUGA; chemistry not given here)”, the “Relative Sub G1” value (AGS cell strain [1]) is reported as 0.9828, the “Relative Apoptotic cell” value (AGS cell strain [2]) is reported as 1.202 and the “Relative Apoptotic cell” value (AGS cell strain [2]; listed as 18-5p) is reported as “significantly higher”. The “effect on cell growth and apoptosis (summary statement)” value (AGS cell strain [2]) was “inhibit cell growth and promote apoptosis” and the “Relative Cell Growth” value (AGS cell strain [3]) was 1.395.

“BART3-5p: EBV BART miRNA mimic, double stranded RNA; sense SEQ NO: 1, antisense SEQ NO: 2 (sense ACCUAGUGUUAGUGUUGUGCU; antisense AGCACAACACUAACACUAGGU; chemistry not given here)” was tested, and the “Relative Sub G1” value (AGS cell strain [1]) was 0.8224, the “Relative Apoptotic cell” value (AGS cell strain [2]) was 1.016 and the “Relative Cell Growth” value (AGS cell strain [3]) was 1.272.

With “BART6-3p: EBV BART miRNA mimic, double stranded RNA; sense SEQ NO: 31, antisense SEQ NO: 32 (sense CGGGGAUCGGACUAGCCUUAGA; antisense UCUAAGGCUAGUCCGAUCCCCG; chemistry not given here)” the “Relative Sub G1” value (AGS cell strain [1]) was 1.24, the “Relative Sub G1” value (AGS cell strain [1]; listed as 6-3p) was “increased” and the “Relative Apoptotic cell” value (AGS cell strain [2]) was 1.018. For the same substance, the “Relative Cell Growth” value (AGS cell strain [3]) was 0.9101.

In the case of “BART20-5p: EBV BART miRNA mimic, double stranded RNA; sense SEQ NO: 73, antisense SEQ NO: 74 (sense UAGCAGGCAUGUCUUCAUUCC; antisense GGAAUGAAGACAUGCCUGCUA; chemistry not given here)”, the “Relative Sub G1” value (AGS cell strain [1]) is reported as 1.379, the “Relative Sub G1” value (AGS cell strain [1]; listed as 20-5p) is reported as “increased” and the “Relative Apoptotic cell” value (AGS cell strain [2]) is reported as 1.075. For the same substance, the “Relative Cell Growth” value (AGS cell strain [3]) was 1.245.

“BART3-3p: EBV BART miRNA mimic, double stranded RNA; sense SEQ NO: 3, antisense SEQ NO: 4 (sense CGCACCACUAGUCACCAGGUGU; antisense ACACCUGGUGACUAGUGGUGCG; chemistry not given here)” was tested, and the “Relative Sub G1” value (AGS cell strain [1]) was 0.9648, the “Relative Apoptotic cell” value (AGS cell strain [2]) was 1.111 and the “Relative Cell Growth” value (AGS cell strain [3]) was 1.135.

For “BART12-5p: EBV BART miRNA mimic, double stranded RNA; sense SEQ NO: 65, antisense SEQ NO: 66 (sense ACCCGCCCAUCACCACCGGAC; antisense GUCCGGUGGUGAUGGGCGGGU; chemistry not given here)”, the “Relative Sub G1” value (AGS cell strain [1]) was 1.135, the “Relative Sub G1” value (AGS cell strain [1]; listed as 12-5p) was “increased” and the “Relative Apoptotic cell” value (AGS cell strain [2]) was 0.9458. The “Relative Cell Growth” value (AGS cell strain [3]) was 1.159.
